Assay results from US20250289774A1, “[…] OF A CANNABIDIOL-LIKE CANNABINOID” (Jazz Pharmaceuticals Research UK Limited, priority 2022, published 2025).

Key:
[1] = system: mouse model of generalised seizure; details: data of PCT/GB2020/052944; cited from earlier work
[2] = Stability of 6-OH CBDV Form A to compression (XRPD after pressing); type: physicochemical; details: ~60 mg in KBr pellet die, compressed overnight at ~370 MPa, analysed immediately by XRPD
Protocol: (§1) XRPD analyses were performed using a Panalytical Empyrean diffractometer equipped with a Cu X-ray tube and a PIXcel 1 D-Medipix3 detector system. The samples were analysed at ambient temperature in transmission mode and held between low density PVC films. The XRPD program parameters were: range 3-40° 2θ or 4-40° 2θ, step size 0.01313°, counting time 23 sec, ˜5 min run time. Samples were spun at 60 rpm during data collection. XRPD patterns were sorted, manipulated using HighScore Plus v4.9 software.
Crystalline Form A material (˜60 mg) was added to a KBr pellet die and compressed overnight at ˜370 MPa using a hydraulic press. The resultant solid disc was removed from the press and immediately analysed by XRPD.

[3] = Stability of Form A to ball milling (XRPD after milling); type: physicochemical; details: 6 minutes at 25 Hz
Protocol: as §1
A ball mill was used to mimic the effects of grinding that would be experienced during formulation steps such as dry blending and wet granulation.
Approximately 45 mg of crystalline Form A material was added to a milling chamber with an agate milling ball. Using a Retsch MM200 mixer mill, the material was milled for 6 minutes at a frequency of 25 Hz. Periodically, the milling was stopped and powder that adhered to the milling chamber was scraped down. The resultant milled material was analysed using XRPD. Samples were also milled with addition of a small amount of solvent (˜10 μL).

Structure (SMILES)	Anticonvulsant activity [1]	Solid form after compression (XRPD) [2]	Output Form after milling (XRPD) ([3]; dry ball milling, no solvent)	Output Form after milling (XRPD) ([3]; wet ball milling, water (~10 μL))
C=C(C)[C@@H]1C[C@H](O)C(C)=C[C@H]1c1c(O)cc(CCC)cc1O [6-OH CBDV, 6-hydroxy cannabidivarin]	displays anticonvulsant activity	–	–	–
C=C(C)[C@@H]1C[C@H](O)C(C)=C[C@H]1c1c(O)cc(CCC)cc1O [Form A, 6-hydroxy cannabidivarin]	–	remained as Form A	no change in form	no change in form
